Entries after “also recorded” stand apart in the source; their conditions may differ. Where two headings read alike, the source gives them in different places.
Columns and labels:
[1] = Response of QAR and PAR to metal ions at pH 7 (absorbance spectrum, colour); format: binding
Protocol: (§1) The response of QAR to different metal ions was measured to determine its selectivity and compared to another sensor (PAR), which has a similar structure. Samples were prepared with different metal standards at pH 7, and the absorbance spectrum of each sample was recorded (FIG. 6). Also, photographs of the samples are provided below to allow for a visual comparison (FIG. 7).
(§2) The spectra of QAR were compared to the spectrum of the free dyes, and the general response of QAR at pH 7 can be described as follows: […]

[2] = Protonation states of metal-QAR complexes; format: physicochemical; details: M(QAR)2H2 decomposition under acidic conditions, midpoint of species distribution curve
Protocol: (§3) The dissociation constant under acidic conditions and the pKA for the para-hydroxy group on the metal-QAR complexes was determined. A set of samples containing QAR and a single metal standard, were prepared in a pH buffer containing 2 mM Triton X-100 surfactant. […] The absorption spectrum of each sample was recorded with the Perkin-Elmer Lambda 650 spectrophotometer.
(§4) Analysis was performed in ReactLab Equilibria. The protonation of the para-hydroxy groups was modelled using the first reaction. Here, the pH micro-constants (stepwise protonation of each dye molecule in the complex) could not be resolved, so the two para-hydroxy groups in the complex were treated as both protonated or both deprotonated in the model. The decomposition of the complex under acidic conditions was modelled using the second reaction. M(QAR)2^2−+2H^+→M(QAR)2H2 M(QAR)2H2+2H^+→[…]+2H3QAR^+
The total uncertainty was estimated from the measurements involved in the experiment using rules of conventional error propagation (TABLE 7).

[3] = Decomposition of metal-QAR complexes under acidic conditions, overall; format: physicochemical
Protocol: as §3, §4
Decomposition of the metal-QAR complexes occurs below pH 3. The dissociation constant is different for each metal. For example, copper has the highest resistance and zinc has the lowest resistance to decomplexation under acidic conditions. Also, this trend [Cu(II)>Co(II)>Ni(II)>Zn(II)] matches the trend in the binding affinities, and the two effects may be related to the specific interactions that occur in the binding of each metal. […]

[4] = Response of QAR and PAR to metal ions at pH 7, overall comparison; format: binding
Protocol: as §1, §2

[5] = Formation and dissociation constants of QAR, titration with metal ion standard at pH 8.8; format: binding; details: for KF / KD: 1:2 complex; for KD: computed from formation constant; for log KF: M^2+ + 2HQAR^− → M(QAR)2^2− + 2H^+; for Kd: read-out: square root over (KD)
Protocol: The formation constants (KF) were determined for QAR and different metals. The relative binding affinities characterized the selectivity of the sensor, i.e. the sensor's preference for binding one metal over another. Also, the corresponding dissociation constants (KD) were computed from the formation constants. This metric yielded the lower performance limit of the sensor that is thermodynamically possible (for a given set of conditions), and it can provide the practical operating range of the sensor.
The absorbance spectra were recorded using a Perkin-Elmer Lambda 650 spectrophotometer while a QAR solution was titrated with a metal ion standard. Scout titrations were performed to obtain an estimate range for the KD. Then, the titration was performed with a sufficiently low initial dye concentration (approximately equal to the KD) for proper determination. Also, measurements were made using 10 cm longpath cuvettes. The increased pathlength compensated for the reduced dye concentration so measurements were made within the instrumental limitations (i.e. absorbance values greater than 0.05 absorbance units).
The dye solution was pH-buffered at such that only one protonated form of the free dye and complex is present. […] At pH 8.8, the following expression describes the metal-dye complex formation where HQAR^− predominates as the free dye and M(QAR)2^2 predominates as the metal complex, and minimal formation of metal hydroxides is expected. M^2++2HQAR^−→M(QAR)2^2−+2H^+
The data was analyzed in ReactLab Equilibria to determine the formation constant using the above model, and initial concentrations of HQAR and the respective metal. This software performs regression with the entire spectrum to calculate the formation constants specified in the model. Analysis was performed several times with different initial “guesses” for parameter values to ensure the algorithm yielded reproducible results.
The corresponding K values were calculated and are shown in the table below where the standard error from regression is given as the uncertainty values. The accuracy of the values is limited for cobalt and copper because the absorbance changes were too steep to properly capture the hyperbolic nature of the curve. And, the experimental conditions could not be adjusted to yield the same level of instrumental sensitivity and accuracy as the other metals. However, a relative comparison of the binding affinities is valid.

[6] = Protonation states of free QAR, pKA by absorption and ReactLab Equilibria (Example 29); format: physicochemical; details: free dye
Protocol: QAR has three protonation sites: The heterocyclic nitrogen in the quinoline moiety, and the para-hydroxyl group and the ortho-hydroxyl group in the resorcinol ring. The ortho-hydroxyl group is involved in binding with the metal.
The acid dissociation constants (pKA) and spectral profiles were determined for QAR. […] The data was analyzed using ReactLab Equilibria (JPlus Consulting Pty Ltd, Australia) to determine the resulting pKA values. QAR has three protonation sites, so four species were used for the analysis model. The pKA values were assigned using values from well-known molecules with a similar structure.
Error analysis was performed using the measurement uncertainties (pH meter and probe, temperature, etc.) and the conventional rules of error propagation. […] The total uncertainty was estimated from the error analysis (TABLE 5).

[7] = accuracy limited, with Co(II) ion
[8] = accuracy limited, with Cu(II) ion

Compound: Oc1ccc(N=Nc2ccccn2)c(O)c1 [PAR, 4-(2-pyridylazo)resorcinol, reference compound]
- response to Ca(II) (spectrum compared to free dye, colour of complex) [1]: did not undergo a spectral change
- response to Cd(II) (spectrum compared to free dye, colour of complex) [1]: orange complexes
- response to Co(II) (spectrum compared to free dye, colour of complex) [1]: magenta complex
- response to Cu(II) (spectrum compared to free dye, colour of complex) [1]: magenta complex
- response to Fe(III) (spectrum compared to free dye, colour of complex) [1]: magenta complex; also recorded: Aggregation occurs
- response to Hg(II) (spectrum compared to free dye, colour of complex) [1]: brown, globular suspension
- response to K(I) (spectrum compared to free dye, colour of complex) [1]: did not undergo a spectral change
- response to Mg(II) (spectrum compared to free dye, colour of complex) [1]: did not undergo a spectral change
- response to Na(I) (spectrum compared to free dye, colour of complex) [1]: did not undergo a spectral change
- response to Ni(II) (spectrum compared to free dye, colour of complex) [1]: orange complexes
- response to Pb(II) (spectrum compared to free dye, colour of complex) [1]: magenta complex
- response to Zn(II) (spectrum compared to free dye, colour of complex) [1]: orange complexes

Compound: Oc1ccc(N=Nc2cccc3cccnc23)c(O)c1 [QAR, 4-(quinolin-8-yldiazenyl)benzene-1,3-diol]
- Acidic Dissociation ([2]; Co(II)-QAR complex): 1.593
- Acidic Dissociation ([2]; Cu(II)-QAR complex): 0.635
- Acidic Dissociation ([2]; Ni(II)-QAR complex): 2.455
- Acidic Dissociation ([2]; Zn(II)-QAR complex): 2.558
- trend of resistance to decomplexation under acidic conditions [3]: Cu(II)>Co(II)>Ni(II)>Zn(II)
- response to Al(III) (spectrum compared to free dye, colour of complex) [1]: Weakly Sensitive
- response to Ca(II) (spectrum compared to free dye, colour of complex) [1]: Insensitive; also recorded: did not undergo a spectral change
- response to Cd(II) (spectrum compared to free dye, colour of complex) [1]: Weakly Sensitive
- response to Co(II) (spectrum compared to free dye, colour of complex) [1]: Strongly Sensitive; also recorded: magenta complex
- response to Cr(III) (spectrum compared to free dye, colour of complex) [1]: Insensitive
- response to Cu(II) (spectrum compared to free dye, colour of complex) [1]: Strongly Sensitive; also recorded: orange complex
- response to Fe(III) (spectrum compared to free dye, colour of complex) [1]: Severe aggregation; also recorded: does not appreciably complex; also recorded: Aggregation occurs
- response to Hg(II) (spectrum compared to free dye, colour of complex) [1]: transparent complex
- response to K(I) (spectrum compared to free dye, colour of complex) [1]: Insensitive; also recorded: did not undergo a spectral change
- response to Mg(II) (spectrum compared to free dye, colour of complex) [1]: Insensitive; also recorded: did not undergo a spectral change
- response to Mn(II) (spectrum compared to free dye, colour of complex) [1]: Weakly Sensitive; also recorded: does not appreciably complex
- response to Na(I) (spectrum compared to free dye, colour of complex) [1]: Insensitive; also recorded: did not undergo a spectral change
- response to Ni(II) (spectrum compared to free dye, colour of complex) [1]: Strongly Sensitive; also recorded: orange complex
- response to Pb(II) (spectrum compared to free dye, colour of complex) [1]: Insensitive; also recorded: does not appreciably complex
- response to Sn(II) (spectrum compared to free dye, colour of complex) [1]: Insensitive; also recorded: does not appreciably complex
- response to Zn(II) (spectrum compared to free dye, colour of complex) [1]: Strongly Sensitive; also recorded: orange complex
- binding selectivity compared with PAR [4]: higher binding selectivity
- spectral sensitivity compared with PAR [4]: higher spectral sensitivity
- KF [5, 7]: (1.86 ± 0.03) × 10^13 M^−2
- KF [5, 8]: (1.85 ± 0.40) × 10^16 M^−2
- KD [5, 7]: (5.30 ± 0.10) × 10^−14 M^2
- KD [5, 8]: (5.40 ± 1.15) × 10^−17 M^2
- KD ([5]; with Hg(II) ion): (1.03 ± 0.04) × 10^−13 M^2
- KD ([5]; with Ni(II) ion): (2.66 ± 0.06) × 10^−13 M^2
- KD ([5]; with Zn(II) ion): (3.24 ± 0.03) × 10^−13 M^2
- KF ([5]; with Hg(II) ion): (9.68 ± 0.45) × 10^12 M^−2
- KF ([5]; with Ni(II) ion): (3.76 ± 0.09) × 10^12 M^−2
- KF ([5]; with Zn(II) ion): (3.09 ± 0.05) × 10^12 M^−2
- log KF [5, 8]: 16.268 M^−2
- log KF ([5]; with Hg(II) ion): 12.986 M^−2
- log KF ([5]; with Ni(II) ion): 12.575 M^−2
- log KF ([5]; with Zn(II) ion): 12.490 M^−2
- Kd [5, 7]: 230 nM
- Kd [5, 8]: 7.35 nM
- Kd ([5]; with Hg(II) ion): 321 nM
- Kd ([5]; with Ni(II) ion): 516 nM
- Kd ([5]; with Zn(II) ion): 569 nM
- pKa ([6]; site Quinoline N): 2.42
- pKa ([6]; site o-OH): 13
- pKA ([6]; site p-OH): 6.539
- pKa ([6]; site p-OH): 6.5

— patent US11275071B2, “Sensor dyes for real-time sensing of metal ions in aqueous environments” (UWM Research Foundation, Inc., priority 2015, dated 2022)
